{"source": "patent US20060160879A1", "about": "“Indoles useful in the treatment of inflammation” (priority 2003, published 2006)", "data": [{"target": "T1, mPGES-1 (Homo sapiens, UniProt O14684)", "T1 construct": "made in house; host or cells: E. coli (membrane fraction)", "T1 sequence (O14684 1-152)": "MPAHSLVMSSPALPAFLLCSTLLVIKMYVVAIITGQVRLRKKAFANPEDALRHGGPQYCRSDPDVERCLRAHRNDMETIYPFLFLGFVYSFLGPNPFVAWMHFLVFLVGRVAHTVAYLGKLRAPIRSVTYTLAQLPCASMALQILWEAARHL", "assay": "mPGES-1 assay: conversion of PGH2 to PGE2, PGE2 analysed by HPLC", "format": "biochemical", "parameters": "dose or concentration left out as unconfirmed", "description": "In the assay mPGES-1 catalyses the reaction where the substrate PGH2 is converted to PGE2. mPGES-1 is expressed in E. coli and the membrane fraction is dissolved in 20 mM NaPi-buffer pH 8.0 and stored at −80° C. In the assay mPGES-1 is dissolved in 0.1M KPi-buffer pH 7.35 with 2.5 mM glutathione. The stop solution consists of H2O/MeCN (7/3), containing FeCl2 (25 mM) and HCl (0.15 M). The assay is performed at room temperature in 96-well plates. Analysis of the amount of PGE2 is performed with reversed phase HPLC (Waters 2795 equipped with a 3.9×150 mm C18 column). The mobile phase consists of H2O/MeCN (7/3), containing TFA (0.056%), and absorbance is measured at 195 nm with a Waters 2487 UV-detector.\nThe following is added chronologically to each well: • 1. 100 μL mPGES-1 in KPi-buffer with glutathione. Total protein concentration: 0.02 mg/mL. • 2. 1 μL inhibitor in DMSO. Incubation of the plate at room temperature for 25 minutes. • 3. 4 μL of a 0.25 mM PGH2 solution. Incubation of the plate at room temperature for 60 seconds. • 4. 100 μL stop solution. • 180 μL per sample is analyzed with HPLC.", "units": {"inhibition of mPGES-1": "%"}, "values": [{"smiles": "CC(C)(C)c1ccc(-c2ccc3c(-c4ccccc4)c(C(=O)O)n(Cc4cccc(Oc5ccccc5)c4)c3c2)cc1", "note": "[Example 1, 6-(4-tert-Butylphenyl)-1-(3-phenoxybenzyl)-3-phenylindole-2-carboxylic acid]", "inhibition of mPGES-1": 96}, {"smiles": "CC(C)(C)c1ccc(-c2ccc3c(-c4cccs4)c(C(=O)O)n(Cc4cccc(Oc5ccccc5)c4)c3c2)cc1", "note": "[Example 2, 6-(4-tert-Butylphenyl)-1-(3-phenoxybenzyl)-3-(2-thienyl)indole-2-carboxylic acid]", "inhibition of mPGES-1": 100}, {"smiles": "O=C(O)c1c(-c2ccccc2)c2cc(-c3ccc4c(c3)OCO4)ccc2n1CCCc1ccccc1", "note": "[Example 3, 5-(3,4-Methylenedioxyphenyl)-3-phenyl-1-(3-phenylpropyl)indole-2-carboxylic acid]", "inhibition of mPGES-1": 85}, {"smiles": "O=C(O)c1c(-c2ccccc2)c2cc(-c3cccnc3)ccc2n1CCCc1ccccc1", "note": "[Example 4, 3-Phenyl-1-(3-phenylpropyl)-5-(3-pyridyl)indole-2-carboxylic acid]", "inhibition of mPGES-1": 81}, {"smiles": "O=C(O)c1cccc(-c2c(C(=O)O)n(Cc3cccc([N+](=O)[O-])c3)c3cc(-c4ccc(OCc5ccccc5)cc4)ccc23)c1", "note": "[Example 5, 6-(4-Benzyloxyphenyl)-3-(3-carboxyphenyl)-1-(3-nitrobenzyl)indole-2-carboxylic acid]", "inhibition of mPGES-1": 93}, {"smiles": "O=C(O)c1cccc(-c2c(C(=O)O)n(Cc3cccc(C(F)(F)F)c3)c3cccc(-c4ccccc4)c23)c1", "note": "[Example 6, 3-(3-Carboxyphenyl)-4-phenyl-1-[3-(trifluoromethyl)benzyl]indole-2-carboxylic acid]", "inhibition of mPGES-1": 100}]}]}
